Data: ChEMBL document CHEMBL2331157, “Structure-activity relationships of 6-(aminomethylphenoxy)-benzoxaborole derivatives as anti-inflammatory agent” (Bioorg Med Chem Lett, 2013)

Experiments:
PBMC [1] = test: Antiinflammatory activity in human PBMCs assessed as inhibition of LPS-induced IL1-beta release incubated for 15 mins prior to LPS challenge measured after 24 hrs by HTRF assay; type: functional, cell-based
PBMC [2] = test: Antiinflammatory activity in human PBMCs assessed as inhibition of LPS-induced IL1-beta release at 100 uM incubated for 15 mins prior to LPS challenge measured after 24 hrs by HTRF assay relative to control; type: functional
PBMC [3] = test: Antiinflammatory activity in human PBMCs assessed as inhibition of LPS-induced IL6 release at 100 uM incubated for 15 mins prior to LPS challenge measured after 24 hrs by HTRF assay relative to control; type: functional
PBMC [4] = test: Antiinflammatory activity in human PBMCs assessed as inhibition of LPS-induced TNFalpha release incubated for 15 mins prior to LPS challenge measured after 24 hrs by HTRF assay; type: functional, cell-based
PBMC [5] = test: Antiinflammatory activity in human PBMCs assessed as inhibition of LPS-induced IL6 release incubated for 15 mins prior to LPS challenge measured after 24 hrs by HTRF assay; type: functional, cell-based
[6] = Tmax in CD1 mouse at 10 mg/kg, po; type: ADME, organism-based; parameters: dose 10 mg/kg, route oral; conditions: in vivo
[7] = Volume of distribution at steady state in CD1 mouse at 5 mg/kg, iv; type: ADME, organism-based; parameters: dose 5 mg/kg, route intravenous; conditions: in vivo, read-out: Vdss
[8] = AUC in CD1 mouse at 10 mg/kg, po; type: ADME, organism-based; parameters: dose 10 mg/kg, route oral; conditions: plasma
PBMC [9] = test: Antiinflammatory activity in human PBMCs assessed as inhibition of LPS-induced TNFalpha release at 100 uM incubated for 15 mins prior to LPS challenge measured after 24 hrs by HTRF assay relative to control; type: functional
[10] = Cmax in CD1 mouse at 10 mg/kg, po; type: ADME, organism-based; parameters: dose 10 mg/kg, route oral; conditions: in vivo
[11] = Clearance in CD1 mouse at 5 mg/kg, iv; type: ADME, organism-based; parameters: dose 5 mg/kg, route intravenous; conditions: in vivo
[12] = Terminal half life in CD1 mouse at 5 mg/kg, iv; type: ADME, organism-based; parameters: dose 5 mg/kg, route intravenous; conditions: in vivo, read-out: beta t1/2 (converted)
[13] = Oral bioavailability in CD1 mouse at 10 mg/kg; type: ADME, organism-based; conditions: in vivo
[14] = Terminal half life in CD1 mouse at 10 mg/kg, po; type: ADME, organism-based; parameters: dose 10 mg/kg, route oral; conditions: in vivo, read-out: beta t1/2 (converted)
[15] = AUC in CD1 mouse at 5 mg/kg, iv; type: ADME, organism-based; parameters: dose 5 mg/kg, route intravenous; conditions: plasma
PBMC [16] = test: Antiinflammatory activity in human PBMCs assessed as inhibition of LPS-induced IL6 release at 10 uM incubated for 15 mins prior to LPS challenge measured after 24 hrs by HTRF assay relative to control; type: functional

## Nc1cccc(Oc2ccc3c(c2)B(O)OC3)c1
PBMC [1]
  IC50: > 10 µM
PBMC [2]
  inhibition at 100 µM: < 40%
PBMC [3]
  inhibition at 100 µM: < 40%
PBMC [4]
  IC50: > 10000 nM
PBMC [5]
  IC50: > 10 µM

## Cl.NCc1ccc(Oc2ccc3c(c2)B(O)OC3)c(F)c1
[6]
  Tmax: 15 min
PBMC [1]
  IC50: 0.043 µM
PBMC [2]
  inhibition at 100 µM: 80%
[7]
  Vd: 2.14 L/kg
[8]
  AUC: 533 ng·h/mL
PBMC [9]
  inhibition at 100 µM: 80%
[10]
  Cmax: 142 ng/mL
[11]
  clearance: 38 mL/min/kg
[12]
  half-life: 39 min
PBMC [3]
  inhibition at 100 µM: 80%
[13]
  bioavailability: 15%
PBMC [4]
  IC50: 41 nM
[14]
  half-life: 146 min
PBMC [5]
  IC50: 0.033 µM
[15]
  AUC: 1740 ng·h/mL

## Cl.NCc1ccc(Oc2ccc3c(c2)B(O)OC3)c(Cl)c1
[6]
  Tmax: 15 min
[7]
  Vd: 2.87 L/kg
[8]
  AUC: 2660 ng·h/mL
[10]
  Cmax: 1450 ng/mL
[11]
  clearance: 36.8 mL/min/kg
[12]
  half-life: 83.4 min
[13]
  bioavailability: 67%
[14]
  half-life: 169 min
[15]
  AUC: 2260 ng·h/mL

## OB1OCc2ccc(Oc3cccc(CN4CCOCC4)c3)cc21
PBMC [1]
  IC50: 4.4 µM
PBMC [2]
  inhibition at 100 µM: 40%
PBMC [9]
  inhibition at 100 µM: 80%
PBMC [3]
  inhibition at 100 µM: < 40%
PBMC [4]
  IC50: 5900 nM
PBMC [5]
  IC50: > 10 µM

## CN1CCN(Cc2cccc(Oc3ccc4c(c3)B(O)OC4)c2)CC1
PBMC [1]
  IC50: 7.1 µM
PBMC [2]
  inhibition at 100 µM: 40%
PBMC [9]
  inhibition at 100 µM: < 40%
PBMC [3]
  inhibition at 100 µM: < 40%
PBMC [4]
  IC50: > 10000 nM
PBMC [5]
  IC50: > 10 µM

## C[C@H]1C[C@H]2[C@@H]3CCC4=CC(=O)C=C[C@]4(C)[C@@]3(F)[C@@H](O)C[C@]2(C)[C@@]1(O)C(=O)CCl [CLOBETASOL]
PBMC [1]
  IC50: 4.4 µM
PBMC [2]
  inhibition at 100 µM: 80%
PBMC [9]
  inhibition at 100 µM: 80%
PBMC [3]
  inhibition at 100 µM: 80%
PBMC [4]
  IC50: 7 nM
PBMC [5]
  IC50: 4.2 µM

## C[C@@H]1C[C@H]2[C@@H]3CCC4=CC(=O)C=C[C@]4(C)[C@@]3(F)[C@@H](O)C[C@]2(C)[C@@]1(O)C(=O)CO [DEXAMETHASONE]
PBMC [16]
  inhibition at 10 µM: 43%
PBMC [1]
  IC50: 0.0095 µM
PBMC [2]
  inhibition at 100 µM: 80%
PBMC [9]
  inhibition at 100 µM: 80%
PBMC [4]
  IC50: 17 nM

## C[S+]([O-])c1ccc(-c2nc(-c3ccc(F)cc3)c(-c3ccncc3)[nH]2)cc1 (stereo not drawn) [SB-203580]
PBMC [1]
  IC50: 0.34 µM
PBMC [2]
  inhibition at 100 µM: 80%
PBMC [9]
  inhibition at 100 µM: 80%
PBMC [3]
  inhibition at 100 µM: < 40%
PBMC [4]
  IC50: 1000 nM
PBMC [5]
  IC50: > 10 µM
